Where a SMILES comes first, the peptide text is derived from it. Where no end group is shown, it is not given here.
Experiments:
[1] = system: Experimental Auto-Immune Encephalomyelitis (EAE); experiment: therapeutic administration, EAE clinical score in mice; assay type: in vivo; details: for mice died: therapeutic EAE study, 16 mice per group, deaths did not appear to be due to EAE
Experimental: The study used a total of 64 female C57BL/6 mice (Taconic Biosciences, 9 weeks old on Day 0). Mice were acclimated for 7 days prior to the first injection. Mice were assigned to groups in a balanced manner to achieve similar average weight across the groups at the start of the study.
Dosing of all mice was performed once on each of the days indicated in Table 6, s.c., at a volume of 0.05 mL/site, each mouse receiving injection at two sites, for a total of 0.1 mL/mouse/dosing day. IMCY-0189, IMCY-0453 or IMCY-0455 peptide total close was […] per administration.
For Saline treatment, 0.9% NaCl solution was prepared at each dosing day. Peptide's preparation was performed as described in example 3.
(§1) AUC, MMS, inflammation and demyelination, and NF-L levels quantification data were analyzed by performing Ordinary one-way ANOVA. Adjustment for multiplicity was performed using Holm-Sidak's method. Significant differences are referred as follows: *p<0.05, **p<0.01, ***p<0.001, ****p<0.0001.
EAE induction and scoring were performed as described in example 3.
EAE development was evaluated by comparing clinical EAE readouts for all groups to the negative control (Saline) group.

[2] = system: Experimental Auto-Immune Encephalomyelitis (EAE); experiment: prophylactic administration, EAE clinical score in mice; assay type: in vivo, C57BL/6 mice; details: vs Alum control group, FIG. 2C, FIG. 4
2D2-Total CD4+ cells = experiment: induction of lytic markers on CD4+ T cells after second stimulation; assay type: cell-based, 2D2 transgenic mice; details: 5 μM control peptide, 10-14 days after S1
Description: 2D2 transgenic mice (Jackson Laboratory) were used as a source of CD4+ cell. […] In this study, 2D2-Total CD4+ cells were purified using manufacture instruction (Miltenyi Biotec, 130-104-454) and antigen presenting cells were splenocyte depleted for T cell repertoire (CD90.2 depletion, Miltenyi Biotec, 130-104-454) from C57BL6 mice (compatible with 2D2-transgenic mice). Control conditions for every study were either no-peptide addition or addition of IMCY-0017, IMCY-0257 or IMCY-0069 (see example 1 and table 1) which the two later, can bind to MHCII from C57BL6-APC efficiently but not activate the TCR from 2D2-transgenic CD4+ T cells. AA controls were not used.
Immunogenic peptides comprising an MCHII T cell epitope and a classical oxidoreductase motif of sequence CxxC are known from the art to induce CD4+ cells with lytic markers called cytolytic CD4+ cells (cCD4+). Therefore, it was attempted to determine whether the peptide variants of the present invention would lead to earlier and/or stronger (percentage or intensity) lytic properties in activated Ag-specific CD4 T cells. […] The FACS results were then determined for all variants of IMCY-0189 and the measurement for the wild type peptide (IMCY-0017) was removed from all the other measurements to determine purely the effect of every modified oxidoreductase motif on the induction of lytic properties.

[3] = system: Experimental Auto-Immune Encephalomyelitis (EAE); experiment: therapeutic EAE study, spinal cord histology (H&E, anti-MBP); assay type: in vivo, C57BL/6 mice; details: spinal cord sections at end of study, vs Saline control
Experimental: At the end of the study, all mice were euthanized, and spines were collected and placed in 10% buffered formalin for histological analysis.
For each spine, one H&E stained slide and one anti-MBP stained slide were prepared and analyzed. Each slide contained a section with samples from lumbar, thoracic and cervical of spinal cord (3 samples). All analysis was performed by a pathologist blinded to the experimental groups and all clinical readouts.
Inflammatory foci of approximately 20 cells were counted in each H&E stained section. When inflammatory infiltrates consisted of more than 20 cells, an estimate was made of how many foci of 20 cells were present.
Demyelination was scored in each anti-MBP (using immunohistochemistry) stained section. In anti-MBP sections, demyelination is observed as conspicuous unstained areas in white matter tracts and is associated with presence of large vacuoles. […]
AUC, MMS, inflammation and demyelination, and NF-L levels quantification data were analyzed by performing Ordinary one-way ANOVA. […]
Histological readouts were evaluated by comparing inflammation and demyelination levels for all groups to the negative control (Saline) group.

[4] = system: Neurofilament light (NF-L) protein; experiment: therapeutic EAE study, serum neurofilament levels (Simoa NF-light); assay type: in vivo, C57BL/6 mice; details: serum on Day 28, vs Saline negative control, FIG. 10
Experimental: On Day 28, blood was collected from all mice into gel dot activator tubes and allowed to dot at room temperature for ˜30 minutes. Blood is then centrifuged at ˜10000 g for 5 minutes. Serum was transferred into Eppendorf tubes and stored at −80° C. until shipment to Quanterix™. Serum Neurofilament light (NF-L) protein levels were quantified using Simoa® NF-light Advantage kit, a digital immunoassay for the quantitative determination of NF-L in serum, plasma and CSF. The used antibodies (Uman Diagnostics, Umeå Sweden) also cross react with murine, bovine and macaque NF-L epitopes and as such, this assay can be used for research with these species. All samples were tested in duplicate at a dilution factor of 40×.
as §1
Axonal damage was also evaluated by comparing NF-L levels for all groups to the negative control (Saline) group.

[5] = therapeutic, 30 μg s.c. with Alum on Days 4, 9, 14, 19, vs Saline negative control

## CC(C)C[C@H](NC(=O)[C@H](Cc1c[nH]cn1)NC(=O)[C@@H](NC(=O)[C@@H](NC(=O)[C@H](CCCNC(=N)N)NC(=O)[C@H](CO)NC(=O)[C@H](Cc1ccccc1)NC(=O)[C@@H]1CCCN1C(=O)[C@H](CO)NC(=O)[C@H](CCCNC(=N)N)NC(=O)[C@H](Cc1ccc(O)cc1)NC(=O)[C@H](Cc1c[nH]c2ccccc12)NC(=O)CNC(=O)[C@H](CS)NC(=O)[C@H](Cc1ccc(O)cc1)NC(=O)[C@@H]1CCCN1C(=O)[C@H](CS)NC(=O)[C@@H](N)Cc1c[nH]cn1)C(C)C)C(C)C)C(=O)N[C@@H](Cc1ccc(O)cc1)C(=O)N[C@@H](CCCNC(=N)N)C(N)=O [IMCY-0189, HCPYC-GWYRSPFSRVVHLYR-NH2, reference compound] (H-HCPYCGWYRSPFSRVVHLYR-NH2)
[1]
  mice died: No mice died

## CC(C)C[C@H](NC(=O)[C@H](Cc1c[nH]cn1)NC(=O)[C@@H](NC(=O)[C@@H](NC(=O)[C@H](CCCNC(=N)N)NC(=O)[C@H](CO)NC(=O)[C@H](Cc1ccccc1)NC(=O)[C@@H]1CCCN1C(=O)[C@H](CO)NC(=O)[C@H](CCCNC(=N)N)NC(=O)[C@H](Cc1ccc(O)cc1)NC(=O)[C@H](Cc1c[nH]c2ccccc12)NC(=O)CNC(=O)[C@H](CS)NC(=O)[C@H](CCCNC(=N)N)NC(=O)[C@H](CS)NC(=O)[C@@H](N)CCCCN)C(C)C)C(C)C)C(=O)N[C@@H](Cc1ccc(O)cc1)C(=O)N[C@@H](CCCNC(=N)N)C(N)=O [IMCY-0453, KCRC-GWYRSPFSRVVHLYR-NH2] (H-KCRCGWYRSPFSRVVHLYR-NH2)
[1]
  mice died: 1

## CPYC-GWYRSPFSRVVHLYR-NH2 (CPYCGWYRSPFSRVVHLYR-NH2; cysteine pairing not given here) [IMCY-0443]
[2]
  reduction of the peak of the disease or MMS: not observed

## HCPYC-LALWEPKPTQAFVK-NH2 (HCPYCLALWEPKPTQAFVK-NH2; cysteine pairing not given here) [IMCY-0069]
2D2-Total CD4+ cells
  survival of the cell culture up to second stimulation: did not survive in the cell culture

## HCPYC-NGGFNSNRANSSRSS-NH2 (HCPYCNGGFNSNRANSSRSS-NH2; cysteine pairing not given here) [IMCY-0257]
2D2-Total CD4+ cells
  survival of the cell culture up to second stimulation: did not survive in the cell culture

## KCRPYC-GWYRSPFSRVVHLYR-NH2 (KCRPYCGWYRSPFSRVVHLYR-NH2; cysteine pairing not given here) [IMCY-0455, KCRPYC motif variant of IMCY-0189]
[3]; FIG. 8
  level of inflammation (inflammatory foci, H&E): statistically significant reduced level
[3]; FIG. 9
  level of demyelination (anti-MBP score): statistically significant reduced level
[1]
  mice died: 1
[1]; therapeutic, 30 μg s.c. with Alum on Days 4, 9, 14, 19, vs IMCY-0189 group
  all clinical readouts (disease onset, end score, AUC and MMS) as compared to IMCY-0189: statistically significantly improved
[1]; [5]
  disease onset: statistically significantly improved
  end score: statistically significantly improved
[1]; therapeutic, 30 μg s.c. with Alum on Days 4, 9, 14, 19, vs Saline negative control, FIG. 6
  AUC of EAE scores: statistically significantly improved
[1]; therapeutic, 30 μg s.c. with Alum on Days 4, 9, 14, 19, vs Saline negative control, FIG. 7
  MMS of EAE scores: statistically significantly improved
[4]
  serum NF-L levels: statistically significant reduced

From US20230181638A1, “IMMUNOGENIC PEPTIDES WITH NEW OXIDOREDUCTASE MOTIFS” (IMCYSE SA, priority 2020, published 2023)
